The source of these data is US5840697A, “Peptide inhibitors of calmodulin” (Torrey Pines Institute for Molecular Studies, priority 1996, dated 1998).

The target in one experiment is calmodulin (Homo sapiens, UniProt P0DP23). The experiment is described as follows: calcium-dependent phosphodiesterase assay (calmodulin activity). Format: biochemical. The note with it: for calmodulin inhibitory activity, in words: (L)-amino acid peptides of Table II; for IC50: Table III, in the presence of calmodulin, read-out: IC50 (μM) for calmodulin; for SPECIFICITY: comparison of IC50 for phosphodiesterase with IC50 for calmodulin. The protocol:
In the calcium dependent phosphodiesterase assay, calmodulin can be assayed by its ability to stimulate phosphodiesterase activity as determined by a two-step assay procedure illustrated by reactions (1) and (2) below. [drawing 1]
During the first step of the assay cyclic adenosine 3'5'-monophosphate (cAMP) is incubated with calcium-activated phosphodiesterase (Cal-PDE), which hydrolyses the 3'bond producing adenosine 5'-monophosphate (5'-AMP). During the second step, 5'-AMP is quantitatively converted into adenosine and inorganic phosphate (Pi) through the action of a 5-nucleotidase. The reaction is followed by the measurement of the Pi formed by reading the absorbance at 660 nm after reacting with ammonium molybdate. The amount of Pi formed is directly related to the phosphodiesterase activity which depends on the level of activation by calmodulin.
To sample assay tubes were added the following components: assay buffer, 25 ul; CaCl2, 5 ul; 5'-nucleotidase, 7.5 ul (stock solution is 10 units/ml); calmodulin 5 units; calmodulin inhibitor peptides to obtain the desired final concentration of 50 μM. The volume was then made up to 200 ul with water. Control blanks were prepared replacing the peptides with water. The added components were thoroughly mixed and the tubes incubated at 30° C. for 10 min. […] The samples were centrifuged to remove the protein precipitate and the 50 ul of the supernatant was withdrawn for phosphate measurement. […] The absorbance of the solution were read at 660 nm using water as a blank, identified as control "Calmo."
The two controls used in the assay, one without and one with calmodulin, as indicated in FIG. 1 and Table I were as follows,: (1) PDE:
These three controls were used in the calcium-dependent phosphodiesterase assay for reproducibility of the assay.
In addition to the calcium-dependent phosphodiesterase assay data, IC50 values were determined for many of the peptides. The assay carried out for the determination in the IC50 values differed from the above screening assay by the concentration of the peptides being tested.
(3) TFP: trifluoperazine; and (4) Calmidasolium: (1-[bis-(4-chlorophenyl)methyl]-3[-2-(2,4-dichlorophenyl)-2[(2,4-dichlorophenyl)methoxy]-ethyl]-1H-imidazolium chloride. The IC50 values were calculated using sigmoidal curve software (Graphpad, ISI; San Diego, Calif.) using the % inhibition at different mixture concentrations (see protocol for determination of % inhibition).
The (L)-amino acid counterpart for five (5) of the all (D)-amino acid peptides identified from the PS-SCL were synthesized in order to study the stereoselectivity of the inhibition.

The target of another experiment is phosphodiesterase. Description: calcium-dependent phosphodiesterase assay in the absence of calmodulin. Format: biochemical. The note with it: Table III. The protocol:
To sample assay tubes were added the following components: assay buffer, 25 ul; CaCl2, 5 ul; 5'-nucleotidase, 7.5 ul (stock solution is 10 units/ml); calmodulin 5 units; calmodulin inhibitor peptides to obtain the desired final concentration of 50 μM. The volume was then made up to 200 ul with water. Control blanks were prepared replacing the peptides with water. The added components were thoroughly mixed and the tubes incubated at 30° C. for 10 min. Then, 25 ul of cAMP at 10.8 mM was added and incubated for 90 min at 30° C. The reaction was stopped by the addition of 50 ul of 55% trichloroacetic acid (TCA). The samples were centrifuged to remove the protein precipitate and the 50 ul of the supernatant was withdrawn for phosphate measurement. To the supernatant aliquot, 50 ul ammonium molybdate (0.55% in 1.1 N sulfuric acid) was added, followed by the addition of 5 ul of reducing agent (24 g sodium bisulfite, 2.4 g sodium sulfite, 0.5 g of 1-amino-2-naphthol-4-sulfonic acid in 200 ml of water), and the contents were mixed by vortexing. The absorbance of the solution were read at 660 nm using water as a blank, identified as control "Calmo."
As described above, one of the undesirable biological effects of existing calmodulin inhibitors is their non-specific binding to other proteins and the like. Therefore, the specificity of the instant inhibitory peptides for calmodulin was examined. The specificity was determined using the calcium-dependent phosphodiesterase assay described in Example I. The assay was carried out for the determination of IC50 values in the presence of calmodulin (IC50 value for calmodulin) and in the absence of calmodulin (IC50 for phosphodiesterase), the latter of which provides the effect of the inhibitory peptides on the phosphodiesterase.

Where [1] appears, read: Table II, (L)-amino acid peptides, concentrations 0.2 to 50.0 μM, read-out: IC50.
Where [2] appears, read: Table I, assayed at 75, 50 and 12.5 μM, average of repeated assays, read-out: Average IC50.

Structures are written as SMILES. pIC50: −log10 of the molar value. Read-outs that look alike come from different tables or passages of the source. Square brackets hold non-standard residues; d marks the D form. Peptide text beside a SMILES is read from it.

For orientation: pIC50 means −log10 of the IC50, conventionally taken in molar units. As usually defined, the IC50 is the concentration that inhibits the measured activity by half.

Take `CC(=O)N[C@@H](CC(C)C)C(=O)N[C@@H](Cc1c[nH]c2ccccc12)C(=O)N[C@@H](CCCNC(=N)N)C(=O)N[C@@H](Cc1c[nH]cn1)C(=O)N[C@@H](CC(C)C)C(=O)N[C@@H](Cc1c[nH]c2ccccc12)C(N)=O` [Ac-Leu-Trp-Arg-His-Leu-Trp-NH2] (Ac-LWRHLW-NH2): on calmodulin, the “calmodulin inhibitory activity, in words” value was “especially high activity”; the IC50 amounted to 1.1 µM; the SPECIFICITY is over 182. Further, the pIC50 on calmodulin (setting [1]) was 5.94. Also, at phosphodiesterase, the IC50 is over 200 µM.

Consider `CC[C@@H](C)[C@@H](NC(=O)[C@@H](Cc1c[nH]c2ccccc12)NC(=O)[C@@H](CC(C)C)NC(C)=O)C(=O)N[C@@H](C(=O)N[C@H](CC(C)C)C(=O)N[C@H](Cc1c[nH]c2ccccc12)C(N)=O)[C@H](C)CC` [Ac-(D)Leu-(D)Trp-(D)Ile-(D)Ile-(D)Leu-(D)Trp-NH2] (Ac-[dL][dW][dI][dI][dL][dW]-NH2), for which the pIC50 on calmodulin (setting [2]) was 4.44. On calmodulin, the IC50 worked out at 29 µM. The “IC50 (μM) for phosphodiesterase” value on phosphodiesterase is recorded as “activation”.

On to `CC[C@@H](C)[C@@H](NC(=O)[C@@H](CCC(N)=O)NC(=O)[C@@H](CC(C)C)NC(C)=O)C(=O)N[C@@H](C(=O)N[C@H](CC(C)C)C(=O)N[C@H](Cc1c[nH]c2ccccc12)C(N)=O)[C@H](C)CC` [Ac-(D)Leu-(D)Gln-(D)Ile-(D)Ile-(D)Leu-(D)Trp-NH2] (Ac-[dL][dQ][dI][dI][dL][dW]-NH2), for which the pIC50 on calmodulin (setting [2]) was 4.57. In addition, the IC50 at calmodulin worked out at 25 µM; on phosphodiesterase, 119 µM. Moreover, the SPECIFICITY at calmodulin is on record as 4.8.

In the case of `CC(=O)N[C@H](CC(C)C)C(=O)N[C@H](Cc1c[nH]c2ccccc12)C(=O)N[C@H](CCCNC(=N)N)C(=O)N[C@H](Cc1c[nH]cn1)C(=O)N[C@H](Cc1c[nH]cn1)C(=O)N[C@H](Cc1c[nH]c2ccccc12)C(N)=O` [Ac-(D)Leu-(D)Trp-(D)Arg-(D)His-(D)His-(D)Trp-NH2] (Ac-[dL][dW][dR][dH][dH][dW]-NH2), the pIC50 at calmodulin (setting [2]) was 5.96. Also, the SPECIFICITY at calmodulin amounted to 100. Also, the IC50 at phosphodiesterase is 112 µM.

As for `CC[C@@H](C)[C@@H](NC(=O)[C@@H](CCCNC(=N)N)NC(=O)[C@@H](Cc1c[nH]c2ccccc12)NC(=O)[C@@H](CC(C)C)NC(C)=O)C(=O)N[C@H](CC(C)C)C(=O)N[C@H](CCCNC(=N)N)C(N)=O` [Ac-(D)Leu-(D)Trp-(D)Arg-(D)Ile-(D)Leu-(D)Arg-NH2] (Ac-[dL][dW][dR][dI][dL][dR]-NH2), at calmodulin (setting [2]), the pIC50 is 5.41. At calmodulin, the IC50 came out at 4.8 µM and the SPECIFICITY is on record as over 42. Moreover, the IC50 on phosphodiesterase is over 200 µM.

In the case of `CC[C@H](C)[C@H](NC(=O)[C@H](CCCNC(=N)N)NC(=O)[C@H](Cc1c[nH]c2ccccc12)NC(=O)[C@H](CC(C)C)NC(C)=O)C(=O)N[C@@H](CC(C)C)C(=O)N[C@@H](CCCNC(=N)N)C(N)=O` [Ac-Leu-Trp-Arg-Ile-Leu-Arg-NH2] (Ac-LWRILR-NH2), on calmodulin, the “calmodulin inhibitory activity, in words” value is on record as “especially high activity” and the SPECIFICITY was over 69. Also, at calmodulin (setting [1]), the pIC50 was 5.54. The IC50 on phosphodiesterase was over 200 µM.

Regarding `CC(=O)N[C@H](CC(C)C)C(=O)N[C@H](Cc1c[nH]c2ccccc12)C(=O)N[C@H](CCCNC(=N)N)C(=O)N[C@H](Cc1c[nH]cn1)C(=O)N[C@H](CC(C)C)C(=O)N[C@H](Cc1c[nH]c2ccccc12)C(N)=O` [Ac-(D)Leu-(D)Trp-(D)Arg-(D)His-(D)Leu-(D)Trp-NH2] (Ac-[dL][dW][dR][dH][dL][dW]-NH2), the pIC50 at calmodulin (setting [2]) was 5.23. On calmodulin, the IC50 came to 6.7 µM and the SPECIFICITY worked out at 10. Also, on phosphodiesterase, the IC50 came to 68 µM.

Regarding `CC[C@@H](C)[C@@H](NC(=O)[C@@H](Cc1c[nH]c2ccccc12)NC(=O)[C@@H](CC(C)C)NC(C)=O)C(=O)N[C@H](Cc1c[nH]cn1)C(=O)N[C@H](CC(C)C)C(=O)N[C@H](Cc1c[nH]c2ccccc12)C(N)=O` [Ac-(D)Leu-(D)Trp-(D)Ile-(D)His-(D)Leu-(D)Trp-NH2] (Ac-[dL][dW][dI][dH][dL][dW]-NH2), on calmodulin (setting [2]), the pIC50 was 5.44. Besides, the SPECIFICITY on calmodulin turned out to be 12. In addition, at phosphodiesterase, the IC50 amounted to 42 µM.

Consider `CC[C@@H](C)[C@@H](NC(=O)[C@@H](CCCNC(=N)N)NC(=O)[C@@H](CCC(N)=O)NC(=O)[C@@H](CC(C)C)NC(C)=O)C(=O)N[C@H](Cc1c[nH]cn1)C(=O)N[C@H](Cc1c[nH]c2ccccc12)C(N)=O` [Ac-(D)Leu-(D)Gln-(D)Arg-(D)Ile-(D)His-(D)Trp-NH2] (Ac-[dL][dQ][dR][dI][dH][dW]-NH2), for which the pIC50 at calmodulin (setting [2]) was 4.72.

Consider `CC[C@@H](C)[C@@H](NC(=O)[C@@H](CCCNC(=N)N)NC(=O)[C@@H](Cc1c[nH]c2ccccc12)NC(=O)[C@@H](CC(C)C)NC(C)=O)C(=O)N[C@H](Cc1c[nH]cn1)C(=O)N[C@H](CCCNC(=N)N)C(N)=O` [Ac-(D)Leu-(D)Trp-(D)Arg-(D)Ile-(D)His-(D)Arg-NH2] (Ac-[dL][dW][dR][dI][dH][dR]-NH2), for which, on calmodulin (setting [2]), the pIC50 is 5.12.

In the case of `CC[C@@H](C)[C@@H](NC(=O)[C@@H](CCC(N)=O)NC(=O)[C@@H](CC(C)C)NC(C)=O)C(=O)N[C@H](Cc1c[nH]cn1)C(=O)N[C@H](CC(C)C)C(=O)N[C@H](Cc1c[nH]c2ccccc12)C(N)=O` [Ac-(D)Leu-(D)Gln-(D)Ile-(D)His-(D)Leu-(D)Trp-NH2] (Ac-[dL][dQ][dI][dH][dL][dW]-NH2), on calmodulin (setting [2]), the pIC50 is 4.52.

Turning to `CC[C@@H](C)[C@@H](NC(=O)[C@@H](CCCNC(=N)N)NC(=O)[C@@H](CCC(N)=O)NC(=O)[C@@H](CC(C)C)NC(C)=O)C(=O)N[C@H](CC(C)C)C(=O)N[C@H](Cc1c[nH]c2ccccc12)C(N)=O` [Ac-(D)Leu-(D)Gln-(D)Arg-(D)Ile-(D)Leu-(D)Trp-NH2] (Ac-[dL][dQ][dR][dI][dL][dW]-NH2), the pIC50 at calmodulin (setting [2]) is 4.62.

Take `CC[C@@H](C)[C@@H](NC(=O)[C@@H](CCCNC(=N)N)NC(=O)[C@@H](Cc1c[nH]c2ccccc12)NC(=O)[C@@H](CC(C)C)NC(C)=O)C(=O)N[C@H](Cc1c[nH]cn1)C(=O)N[C@H](Cc1c[nH]c2ccccc12)C(N)=O` [Ac-(D)Leu-(D)Trp-(D)Arg-(D)Ile-(D)His-(D)Trp-NH2] (Ac-[dL][dW][dR][dI][dH][dW]-NH2): on calmodulin (setting [2]), the pIC50 is 6.02. At calmodulin, the IC50 was 1.2 µM and the SPECIFICITY stood at 69. The IC50 at phosphodiesterase turned out to be 84 µM.

Consider `CC[C@@H](C)[C@@H](NC(=O)[C@@H](Cc1c[nH]c2ccccc12)NC(=O)[C@@H](CC(C)C)NC(C)=O)C(=O)N[C@H](Cc1c[nH]cn1)C(=O)N[C@H](Cc1c[nH]cn1)C(=O)N[C@H](Cc1c[nH]c2ccccc12)C(N)=O` [Ac-(D)Leu-(D)Trp-(D)Ile-(D)His-(D)His-(D)Trp-NH2] (Ac-[dL][dW][dI][dH][dH][dW]-NH2), for which the pIC50 at calmodulin (setting [2]) is 5.07. Further, on calmodulin, the IC50 was 12 µM and the SPECIFICITY was found to be 2.4. The IC50 at phosphodiesterase worked out at 30 µM.
